We go through six compounds from PubChem BioAssay (NCI).

Some test systems named below: MOLT-4 leukemia; LOX IMVI melanoma; OVCAR-5 ovarian; CCRF-CEM leukemia; KM12 colon; HCT-116 colon; 786-0 renal; BT-549 breast; RXF 393 renal; HOP-92 NSCLC.
Holding throughout (assay): inhibition of tumour cell growth, NCI panel, 48 h

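Growth conditions: 96-well plates. Treatment: test compound, 48 hours, 5 concentrations. Analysis: linear interpolation between bracketing concentrations; unreached endpoints set to highest concentration. At the GI50, growth is halved. TGI: concentration producing complete growth inhibition.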

In the case of `C/C(=C(/c1ccccc1)c1ccc(OCC(O)CNCCN2CCOCC2)cc1)c1ccccc1` (stereo not given), the GI50 was 2.13 µM in the assay with MOLT-4 leukemia; 1.72 µM in the assay with LOX IMVI melanoma; 6.48 µM in the assay on OVCAR-5 ovarian; 3.48 µM with CCRF-CEM leukemia; 2.73 µM in the assay on KM12 colon; 1.86 µM in the assay on HCT-116 colon. For the same compound, the GI50 is 1.74 µM in the assay on 786-0 renal, 10.1 µM in the assay on BT-549 breast, 1.91 µM in the assay with RXF 393 renal and 1.5 µM in the assay with HOP-92 NSCLC. The TGI came to 5.41 µM in the assay with MOLT-4 leukemia; 3.12 µM with LOX IMVI melanoma; 20.5 µM with OVCAR-5 ovarian; 11.3 µM with CCRF-CEM leukemia; 8.33 µM in the assay on KM12 colon; 4.02 µM with HCT-116 colon. The TGI in the assay on 786-0 renal was determined as 3.32 µM; in the assay on BT-549 breast, 22.2 µM; with RXF 393 renal it was 4.22 µM; with HOP-92 NSCLC, 4.81 µM.

With `CCCc1nc(Cl)nc(Cl)c1Cl`, the TGI in the assay on MOLT-4 leukemia turned out to be 0.551 µM; in the assay with LOX IMVI melanoma, 1.62 µM; in the assay on OVCAR-5 ovarian, 1.74 µM; in the assay on CCRF-CEM leukemia it was 0.0731 µM; in the assay with KM12 colon, 2.77 µM; in the assay on HCT-116 colon, 1.3 µM. For the same compound, the TGI in the assay with 786-0 renal was found to be 1.43 µM; in the assay with BT-549 breast, 0.0764 µM; in the assay with RXF 393 renal, 0.798 µM; with HOP-92 NSCLC, 0.532 µM.

For `CCN1[C@@H](C(=O)NC23CCC(C(=O)O)(CC2)CC3)[C@H](c2cccc(Cl)c2F)[C@]2(C(=O)Nc3cc(Cl)ccc32)C12CCCCC2`, the GI50 in the assay with MOLT-4 leukemia was 0.164 µM; in the assay with LOX IMVI melanoma, 0.259 µM; in the assay with OVCAR-5 ovarian, 3.74 µM; with CCRF-CEM leukemia, 2.98 µM; in the assay on KM12 colon, 3.34 µM; in the assay on HCT-116 colon, 0.104 µM. For the same compound, the GI50 with 786-0 renal was 2.94 µM; with BT-549 breast, 2.28 µM; in the assay on RXF 393 renal, 1.99 µM; in the assay on HOP-92 NSCLC, 2.15 µM. The TGI was > 22.9 µM in the assay with MOLT-4 leukemia; 4.88 µM in the assay on LOX IMVI melanoma; 17.8 µM in the assay with OVCAR-5 ovarian; 13.2 µM with CCRF-CEM leukemia; 12.7 µM in the assay with KM12 colon; 3.11 µM in the assay with HCT-116 colon. In addition, the TGI in the assay with 786-0 renal was 12.1 µM; with BT-549 breast, 5.54 µM; in the assay on RXF 393 renal, 5.69 µM; in the assay on HOP-92 NSCLC it was 6.45 µM.

Turning to `O=C(CC1(O)C(=O)Nc2ccc(F)cc21)c1ccc(C(=O)NCC2CCC3(CC2)OOC2(CCCCC2)OO3)cc1` (stereo not given), the GI50 in the assay with MOLT-4 leukemia was 3.72 µM; in the assay with LOX IMVI melanoma, 0.309 µM; in the assay with OVCAR-5 ovarian, 15.7 µM; in the assay on CCRF-CEM leukemia, 1.81 µM; with KM12 colon, 4.09 µM; with HCT-116 colon, 8.66 µM. The GI50 with 786-0 renal is 2 µM; with BT-549 breast, 12.6 µM; in the assay with RXF 393 renal, 6.19 µM; in the assay on HOP-92 NSCLC, 1.91 µM. The TGI in the assay with MOLT-4 leukemia worked out at 28.8 µM; with LOX IMVI melanoma it was 1.27 µM; in the assay with OVCAR-5 ovarian, 36.5 µM; with CCRF-CEM leukemia it was 4.3 µM; in the assay on KM12 colon, 17.5 µM; with HCT-116 colon, 32 µM. Further, the TGI in the assay on 786-0 renal is 3.81 µM; in the assay with BT-549 breast it was 34.6 µM; in the assay with RXF 393 renal, 21.7 µM; in the assay with HOP-92 NSCLC it was 3.82 µM.

Regarding `C=C1C(=O)O[C@H]2[C@H]1CC/C(Cn1cc(-c3ccc(N)cc3)nn1)=C\CC[C@@]1(C)O[C@@H]21`, the GI50 in the assay on MOLT-4 leukemia is 2.87 µM; in the assay on LOX IMVI melanoma it was 1.51 µM; in the assay with OVCAR-5 ovarian, 6.43 µM; in the assay on CCRF-CEM leukemia, 2 µM; in the assay on KM12 colon, 11.4 µM; with HCT-116 colon, 1.55 µM. Moreover, the GI50 with 786-0 renal was 1.98 µM; with BT-549 breast it was 3.05 µM; in the assay on RXF 393 renal it was 1.41 µM; in the assay on HOP-92 NSCLC it was 2.13 µM. Moreover, the TGI with MOLT-4 leukemia came out at 28.6 µM; with LOX IMVI melanoma, 2.88 µM; in the assay with OVCAR-5 ovarian it was 22.9 µM; in the assay on CCRF-CEM leukemia, 20.3 µM; in the assay on KM12 colon, 26.9 µM; in the assay on HCT-116 colon it was 4.22 µM. In addition, the TGI with 786-0 renal was determined as 4.62 µM; in the assay on BT-549 breast it was 11.7 µM; in the assay with RXF 393 renal it was 3.02 µM; in the assay on HOP-92 NSCLC, 5.33 µM.

As for `COc1ccc(C2=NC(=O)NC2c2ccc(OC)cc2)cc1` (stereo not given), the GI50 in the assay with MOLT-4 leukemia is 1.2 µM; in the assay on LOX IMVI melanoma, 12.4 µM; in the assay on OVCAR-5 ovarian, 25.9 µM; in the assay on CCRF-CEM leukemia it was 38.9 µM; with KM12 colon, 4.5 µM; with HCT-116 colon, 5.9 µM. Also, the GI50 in the assay on 786-0 renal was 26.9 µM; with BT-549 breast it was 3.89 µM; with RXF 393 renal, 12 µM; in the assay on HOP-92 NSCLC it was 1.95 µM. In addition, the TGI with MOLT-4 leukemia is 96.7 µM; with LOX IMVI melanoma, > 100 µM; in the assay with OVCAR-5 ovarian, > 100 µM; in the assay on CCRF-CEM leukemia, > 100 µM; in the assay on KM12 colon, 29.5 µM; in the assay with HCT-116 colon, 27.7 µM. Besides, the TGI in the assay on 786-0 renal is > 100 µM; in the assay on BT-549 breast it was 29.5 µM; in the assay on RXF 393 renal, 51.5 µM; with HOP-92 NSCLC it was 30.5 µM.
